Measured values from patent US20240382511A1, “NICOTINAMIDE MONONUCLEOTIDE DERIVATIVES AND USE THEREOF FOR THE TREATMENT OF HEART FAILURE WITH PRESERVED EJECTION FRACTION” (NUVAMID SA, priority 2021, published 2024).

Columns and labels:
Assay type in all cases: in vivo, hamster (Golden Syrian)
[1] = tested on: free choice fed hamsters (diet-induced NASH hamster model of HFpEF); experiment: Body weight, food and water intake in diet-induced NASH hamster model of HFpEF; details: treatment once a day per os from week 15, 5 weeks (compound 001 600 mg/kg, vardenafil 10 mg/kg), FIG. 5
Excerpt: (§1) Animals. Male hamsters (Golden Syrian), 4-week-old at receipt, were acclimated at least 5 days before the beginning of the study. Control animals were fed with a chow diet with normal tap water. For diet-induced NASH model, animals were fed with a free choice diet consisting of (a) a chow diet with normal water and (b) a high fat/cholesterol diet with 10% fructose enriched tap water. Food and water intake have been measured once a week. Dosage regimen and test groups. Animals were divided into 5 groups: [table] The study was conducted over 20 weeks. Treatments were administered from week 15 until the end of the experiment (duration 5 weeks), once a day, per os, at a rate of 10 ml/kg. Water was used as vehicle. Vardenafil was used as reference compound. Data analysis. All graphs represent means±standard error of mean (sem). Statistical analysis has been performed using GraphPad Prism 5 software. Single comparisons were made using Student's unpaired t-test or Mann Whitney in case of significant variance. […] During 20 weeks of diet including 5 weeks under treatment with vehicle, compound 001, vardenafil or both, body weight, food and water intake were recorded once a week. Blood was collected at week 14 and week 20 to measure plasma insulin, glucose and ALT/AST, and NT-pro BNP level was evaluated at week 20. Echocardiographic studies were assessed at week 14 and week 20. […]

[2] = tested on: free choice fed hamsters (diet-induced NASH hamster model of HFpEF); experiment: Echocardiography (left ventricular function and dimensions) in diet-induced NASH hamster model of HFpEF; details: for cardiac parameters (overall conclusion): diet-induced NASH hamster model, end of 5-week treatment period
Excerpt: Animals. Male hamsters (Golden Syrian), 4-week-old at receipt, were acclimated at least 5 days before the beginning of the study. Control animals were fed with a chow diet with normal tap water. For diet-induced NASH model, animals were fed with a free choice diet consisting of (a) a chow diet with normal water and (b) a high fat/cholesterol diet with 10% fructose enriched tap water. Food and water intake have been measured once a week. Dosage regimen and test groups. Animals were divided into 5 groups: [table] The study was conducted over 20 weeks. Treatments were administered from week 15 until the end of the experiment (duration 5 weeks), once a day, per os, at a rate of 10 ml/kg. Water was used as vehicle. Vardenafil was used as reference compound. Echocardiography. Left ventricular function and dimensions were assessed 14 and 20 weeks after the start of diet using two-dimensional echocardiograph (VF16-5 probe, Siemens, Acuson NX3 Elite). Numeric images of the heart were obtained in parasternal long and short-axis views using or not time motion for systolic function and in apical four chambers view with doppler mode for diastolic function. Heart rate, left ventricular end-diastolic and end-systolic diameters and volumes, as well as posterior and anterior wall thicknesses in diastole and systole, mitral flow velocity (E and A waves), the isovolumic relaxation time (IVRT), and annular tissue velocity of the mitral valve (e′ and a′ peaks) were measured. Left ventricular ejection fraction, fractional shortening, E/A ratio and E/E′ ratio were then calculated. Data analysis. All graphs represent means±standard error of mean (sem). Statistical analysis has been performed using GraphPad Prism 5 software. Single comparisons were made using Student's unpaired t-test or Mann Whitney in case of significant variance. Multiple comparisons have been carried out with two-way ANOVA followed by post-hoc Bonferroni test or one-way ANOVA followed by post-hoc Dunnett or Kruskall-Wallis test in case of significant variance. For all tests, p<0.05 was considered significant.

[3] = tested on: free choice fed hamsters (diet-induced NASH hamster model of HFpEF); experiment: Biochemical analysis (glucose, plasma insulin, ALT/AST, NT pro-BNP) in diet-induced NASH hamster model of HFpEF
Excerpt: Animals. Male hamsters (Golden Syrian), 4-week-old at receipt, were acclimated at least 5 days before the beginning of the study. Control animals were fed with a chow diet with normal tap water. For diet-induced NASH model, animals were fed with a free choice diet consisting of (a) a chow diet with normal water and (b) a high fat/cholesterol diet with 10% fructose enriched tap water. Food and water intake have been measured once a week. Dosage regimen and test groups. Animals were divided into 5 groups: [table] The study was conducted over 20 weeks. Treatments were administered from week 15 until the end of the experiment (duration 5 weeks), once a day, per os, at a rate of 10 ml/kg. Water was used as vehicle. Vardenafil was used as reference compound. Biochemical analysis. After 14 and 20 weeks of diet, blood was collected through tail vein, saphenous vein or retro orbital sinus after a 6 h fasting period to measure respectively glucose, plasma insulin and ALT/AST. After 20 weeks of diet, blood was collected and centrifuged to obtain plasma which was used to measure NT pro-BNP in plasma. Data analysis. All graphs represent means±standard error of mean (sem). Statistical analysis has been performed using GraphPad Prism 5 software. Single comparisons were made using Student's unpaired t-test or Mann Whitney in case of significant variance. Multiple comparisons have been carried out with two-way ANOVA followed by post-hoc Bonferroni test or one-way ANOVA followed by post-hoc Dunnett or Kruskall-Wallis test in case of significant variance. For all tests, p<0.05 was considered significant.

[4] = tested on: free choice fed hamsters (diet-induced NASH hamster model of HFpEF); experiment: Organ weights (heart, liver, lungs), normalized or not to tibia length, in diet-induced NASH hamster model of HFpEF; details: normalized to tibia length; after 20 weeks of diet including 5 weeks of treatment per os (compound 001 600 mg/kg, vardenafil 10 mg/kg); FIG. 11
Excerpt: as §1

NC(=O)c1ccc[n+]([C@@H]2O[C@H](COP(=O)([O-])O)[C@@H](O)[C@H]2O)c1 [compound 001, nicotinamide mononucleotide]
body weight / body weight gain [1]: significant decrease in body weight
cardiac parameters (overall conclusion) [2]: improved most of cardiac parameters
cardiac parameters (overall conclusion) ([2]; listed as NMN): improve cardiac parameters
diastolic function ([2]; echocardiography after 20 weeks of diet including 5 weeks of treatment per os (compound 001 600 mg/kg, vardenafil 10 mg/kg)): improved diastolic function
E/A ratio ([2]; echocardiography after 20 weeks of diet including 5 weeks of treatment per os (compound 001 600 mg/kg, vardenafil 10 mg/kg), vs free choice vehicle, FIG. 8A): significant decrease in E/A ratio
E′/A′ ratio ([2]; echocardiography after 20 weeks of diet including 5 weeks of treatment per os (compound 001 600 mg/kg, vardenafil 10 mg/kg), vs free choice vehicle, FIG. 8B): increased E′/A′ ratio
E/E′ ratio ([2]; echocardiography after 20 weeks of diet including 5 weeks of treatment per os (compound 001 600 mg/kg, vardenafil 10 mg/kg), vs free choice vehicle, FIG. 8D): E/E′ ratio decreased
isovolumic relaxation time (IVRT) ([2]; echocardiography after 20 weeks of diet including 5 weeks of treatment per os (compound 001 600 mg/kg, vardenafil 10 mg/kg), vs free choice vehicle, FIG. 8E): increased to normal levels
plasma insulin levels ([3]; week 20, after 5 weeks of treatment per os (compound 001 600 mg/kg, vardenafil 10 mg/kg), FIG. 9C): tended to increase plasma insulin levels
HOMA-IR index ([3]; week 20, after 5 weeks of treatment per os (compound 001 600 mg/kg, vardenafil 10 mg/kg), FIG. 9E): tended to increase plasma insulin levels and HOMA-IR index
plasma AST ([3]; week 20, after 5 weeks of treatment per os, 600 mg/kg, FIG. 9B): tendency to restore plasma AST
lung oedema (difference between wet and dry lung weight) [4]: non significantly reduced
